Measured values: patent publication US9850283B2, “Macrocyclic inhibitors of the PD-1/PD-L1 and CD80(B7-1)/PD-L1 protein/protein interactions” (BRISTOL-MYERS SQUIBB COMPANY, priority 2013, dated 2017)
Positions of bridges follow the written chain, without caps; N, C: chain ends. Non-standard residues stand in square brackets, D forms with d. Residues, ends and D or L forms follow the SMILES beside them. ξ: configuration not given here. Phe(4-guanidino) = N=C(N)Nc1ccc(C[C@H](N)C(=O)O)cc1; Phe(3,4-Cl2) = N[C@@H](Cc1ccc(Cl)c(Cl)c1)C(=O)O; Phe(3-CF3) = N[C@@H](Cc1cccc(C(F)(F)F)c1)C(=O)O; Phe(2,4-Cl2) = N[C@@H](Cc1ccc(Cl)cc1Cl)C(=O)O; Phe(3-CN) = N#Cc1cccc(C[C@H](N)C(=O)O)c1; Phe(4-NH2) = Nc1ccc(C[C@H](N)C(=O)O)cc1; Phe(3-Me) = Cc1cccc(C[C@H](N)C(=O)O)c1; d(cisHyp) = O=C(O)[C@H]1C[C@@H](O)CN1; Bta = N[C@@H](Cc1csc2ccccc12)C(=O)O; Hyp = O=C(O)[C@@H]1C[C@@H](O)CN1; NMehSer = CN[C@@H](CCO)C(=O)O; NMeNle = CCCC[C@H](NC)C(=O)O; NMeA = CN[C@@H](C)C(=O)O; Nle = CCCC[C@H](N)C(=O)O; Dap = NC[C@H](N)C(=O)O; ξC = NC(CS)C(=O)O

Assays:
Human PD-L1/PD-1 = target: T1, Human PD-L1/PD-1 (Homo sapiens, UniProt Q9NZQ7); assay: HTRF PD-1-Ig/PD-L1-His binding assay (human PD-L1); details: cluster symbol; read-out: HTRF IC50 cluster
T1 construct: made in house; host or cells: HEK293T
T1 sequence (Q9NZQ7 with tags, fused parts or gaps): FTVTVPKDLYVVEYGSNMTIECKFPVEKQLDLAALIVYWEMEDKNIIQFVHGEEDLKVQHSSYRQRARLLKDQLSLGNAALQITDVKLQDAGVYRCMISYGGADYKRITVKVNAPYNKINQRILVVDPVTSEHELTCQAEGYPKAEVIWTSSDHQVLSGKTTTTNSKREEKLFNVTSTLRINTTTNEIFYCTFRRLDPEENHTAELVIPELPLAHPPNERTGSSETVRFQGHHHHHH
Method in brief: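 Ig- and His-fused extracellular PD-1/PD-L1 binding in BSA/Tween-20 dPBS. HTRF with Eu anti-Ig (1 nM final) and APC anti-His (20 nM final).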

[1] = target: T2, LK35.2-hPD-L1 cells / PE-labeled PD-1-Ig (Homo sapiens, UniProt Q9NZQ7); assay: LK35.2-hPD-L1 cell binding high-content screening assay; type: cell-based; details: cell binding assay, cell line not given; cluster symbol; read-out: CBA IC50 cluster
T2 construct: expressed in transfected cells; host or cells: LK35.2 mouse B cell line
T2 sequence (Q9NZQ7 19-290): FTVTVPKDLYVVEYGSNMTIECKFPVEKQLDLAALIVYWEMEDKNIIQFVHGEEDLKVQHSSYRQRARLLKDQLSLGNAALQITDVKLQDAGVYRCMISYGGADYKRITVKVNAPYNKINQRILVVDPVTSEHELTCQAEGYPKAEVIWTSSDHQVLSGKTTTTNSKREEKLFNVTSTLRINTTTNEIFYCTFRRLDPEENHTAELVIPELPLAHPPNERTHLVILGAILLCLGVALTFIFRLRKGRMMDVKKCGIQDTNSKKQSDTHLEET
Method in brief: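 Using overnight-cultured LK35.2-hPD-L1 mouse B cells, compound was co-incubated with phycoerythrin-tagged human PD-1-Ig (final 1 nM) at 37 °C for one hour. Unbound label was removed by triple dPBS washing prior to high-content image acquisition and analysis.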

| SMILES | IC50 (Human PD-L1/PD-1) [nM] | IC50 [1] [nM] |
| --- | --- | --- |
| CCCC[C@H]1C(=O)N(C)[C@@H](CCCC)C(=O)N[C@@H](CCCNC(=N)N)C(=O)N[C@H](C(=O)NCC(N)=O)CSCC(=O)N[C@@H](Cc2cccc(C(F)(F)F)c2)C(=O)N(C)[C@@H](C)C(=O)N[C@@H](CC(N)=O)C(=O)N2CCC[C@H]2C(=O)N[C@@H](Cc2cnc[nH]2)C(=O)N[C@@H](CC(C)C)C(=O)N2C[C@H](O)C[C@H]2C(=O)N[C@@H](Cc2c[nH]c3ccccc23)C(=O)N[C@@H](CO)C(=O)N[C@@H](Cc2c[nH]c3ccccc23)C(=O)N1C [Example 7056] ({CH2CO}-[Phe(3-CF3)][NMeA]NPHL[Hyp]WSW[NMeNle][NMeNle]RCG-NH2; thioether N-14) | 6.76 to 30.3 | > 74.3 |
| CCCC[C@H]1C(=O)N(C)[C@@H](CCCC)C(=O)N[C@@H](CCCNC(=N)N)C(=O)N[C@H](C(=O)NCC(N)=O)CSCC(=O)N[C@@H](Cc2cccc(C)c2)C(=O)N(C)[C@@H](C)C(=O)N[C@@H](CC(N)=O)C(=O)N2CCC[C@H]2C(=O)N[C@@H](Cc2cnc[nH]2)C(=O)N[C@@H](CC(C)C)C(=O)N2C[C@H](O)C[C@H]2C(=O)N[C@@H](Cc2c[nH]c3ccccc23)C(=O)N[C@@H](CO)C(=O)N[C@@H](Cc2c[nH]c3ccccc23)C(=O)N1C [Example 7057] ({CH2CO}-[Phe(3-Me)][NMeA]NPHL[Hyp]WSW[NMeNle][NMeNle]RCG-NH2; thioether N-14) | 0.385 to 6.74 | 4.78 to 72.9 |
| CCCC[C@H]1C(=O)N(C)[C@@H](CCCC)C(=O)N[C@@H](CCCNC(=N)N)C(=O)N[C@H](C(=O)NCC(N)=O)CSCC(=O)N[C@@H](Cc2cccc(C#N)c2)C(=O)N(C)[C@@H](C)C(=O)N[C@@H](CC(N)=O)C(=O)N2CCC[C@H]2C(=O)N[C@@H](Cc2cnc[nH]2)C(=O)N[C@@H](CC(C)C)C(=O)N2C[C@H](O)C[C@H]2C(=O)N[C@@H](Cc2c[nH]c3ccccc23)C(=O)N[C@@H](CO)C(=O)N[C@@H](Cc2c[nH]c3ccccc23)C(=O)N1C [Example 7058] ({CH2CO}-[Phe(3-CN)][NMeA]NPHL[Hyp]WSW[NMeNle][NMeNle]RCG-NH2; thioether N-14) | 6.76 to 30.3 | > 74.3 |
| CCCC[C@H]1C(=O)N(C)[C@@H](CCCC)C(=O)N[C@@H](CCCNC(=N)N)C(=O)N[C@H](C(=O)NCC(N)=O)CSCC(=O)N[C@@H](Cc2ccc(N)cc2)C(=O)N(C)[C@@H](C)C(=O)N[C@@H](CC(N)=O)C(=O)N2CCC[C@H]2C(=O)N[C@@H](Cc2cnc[nH]2)C(=O)N[C@@H](CC(C)C)C(=O)N2C[C@H](O)C[C@H]2C(=O)N[C@@H](Cc2c[nH]c3ccccc23)C(=O)N[C@@H](CO)C(=O)N[C@@H](Cc2c[nH]c3ccccc23)C(=O)N1C [Example 7059] ({CH2CO}-[Phe(4-NH2)][NMeA]NPHL[Hyp]WSW[NMeNle][NMeNle]RCG-NH2; thioether N-14) | 0.385 to 6.74 | 4.78 to 72.9 |
| CCCC[C@H]1C(=O)N(C)[C@@H](CCCC)C(=O)N[C@@H](CCCNC(=N)N)C(=O)N[C@H](C(=O)NCC(N)=O)CSCC(=O)N[C@@H](Cc2ccc(OC)cc2)C(=O)N(C)[C@@H](C)C(=O)N[C@@H](CC(N)=O)C(=O)N2CCC[C@H]2C(=O)N[C@@H](Cc2cnc[nH]2)C(=O)N[C@@H](CC(C)C)C(=O)N2C[C@H](O)C[C@H]2C(=O)N[C@@H](Cc2c[nH]c3ccccc23)C(=O)N[C@@H](CO)C(=O)N[C@@H](Cc2c[nH]c3ccccc23)C(=O)N1C [Example 7060] | 0.385 to 6.74 | 0.158 to 4.71 |
| CCCC[C@H]1C(=O)N(C)[C@@H](CCCC)C(=O)N[C@@H](CCCNC(=N)N)C(=O)N[C@H](C(=O)NCC(N)=O)CSCC(=O)N[C@@H](Cc2ccc(Cl)cc2Cl)C(=O)N(C)[C@@H](C)C(=O)N[C@@H](CC(N)=O)C(=O)N2CCC[C@H]2C(=O)N[C@@H](Cc2cnc[nH]2)C(=O)N[C@@H](CC(C)C)C(=O)N2C[C@H](O)C[C@H]2C(=O)N[C@@H](Cc2c[nH]c3ccccc23)C(=O)N[C@@H](CO)C(=O)N[C@@H](Cc2c[nH]c3ccccc23)C(=O)N1C [Example 7062] ({CH2CO}-[Phe(2,4-Cl2)][NMeA]NPHL[Hyp]WSW[NMeNle][NMeNle]RCG-NH2; thioether N-14) | 0.385 to 6.74 | 4.78 to 72.9 |
| CCCC[C@H]1C(=O)N(C)[C@@H](CCCC)C(=O)N[C@@H](CCCNC(=N)N)C(=O)N[C@H](C(=O)NCC(N)=O)CSCC(=O)N[C@@H](Cc2ccc(Cl)c(Cl)c2)C(=O)N(C)[C@@H](C)C(=O)N[C@@H](CC(N)=O)C(=O)N2CCC[C@H]2C(=O)N[C@@H](CN)C(=O)N[C@@H](CC(C)C)C(=O)N2C[C@H](O)C[C@H]2C(=O)N[C@@H](Cc2c[nH]c3ccccc23)C(=O)N[C@@H](CO)C(=O)N[C@@H](Cc2c[nH]c3ccccc23)C(=O)N1C [Example 7063] ({CH2CO}-[Phe(3,4-Cl2)][NMeA]NP[Dap]L[Hyp]WSW[NMeNle][NMeNle]RCG-NH2; thioether N-14) | 0.385 to 6.74 | 4.78 to 72.9 |
| CCCC[C@H]1C(=O)N(C)[C@@H](CCCC)C(=O)N[C@@H](CCCNC(=N)N)C(=O)N[C@H](C(=O)NCC(N)=O)CSCC(=O)N[C@@H](Cc2ccc(N=C(N)N)cc2)C(=O)N(C)[C@@H](C)C(=O)N[C@@H](CC(N)=O)C(=O)N2CCC[C@H]2C(=O)N[C@@H](CN)C(=O)N[C@@H](CC(C)C)C(=O)N2C[C@H](O)C[C@H]2C(=O)N[C@@H](Cc2c[nH]c3ccccc23)C(=O)N[C@@H](CO)C(=O)N[C@@H](Cc2c[nH]c3ccccc23)C(=O)N1C [Example 7064] ({CH2CO}-[Phe(4-guanidino)][NMeA]NP[Dap]L[Hyp]WSW[NMeNle][NMeNle]RCG-NH2; thioether N-14) | > 30.5 | > 74.3 |
| CCCC[C@H]1C(=O)N(C)[C@@H](CCCC)C(=O)N[C@@H](CCCNC(=N)N)C(=O)NC(C(=O)NCC(N)=O)CSCC(=O)N[C@@H](Cc2ccc(O)cc2)C(=O)N(C)[C@@H](C)C(=O)N[C@@H](CC(N)=O)C(=O)N2C[C@H](O)C[C@H]2C(=O)N[C@@H](Cc2cnc[nH]2)C(=O)N[C@@H](CC(C)C)C(=O)N2CCC[C@@H]2C(=O)N[C@@H](Cc2c[nH]c3ccccc23)C(=O)N[C@@H](CO)C(=O)N[C@@H](Cc2csc3ccccc23)C(=O)N1C (stereo partly shown) [Example 9001] ({CH2CO}-Y[NMeA]N[Hyp]HL[dP]WS[Bta][NMeNle][NMeNle]R[ξC]G-NH2; thioether N-14) | 6.76 to 30.3 | 0.158 to 4.71 |
| CCCC[C@@H]1NC(=O)[C@H](Cc2cnc[nH]2)NC(=O)[C@@H]2CCCN2C(=O)[C@H](CC(N)=O)NC(=O)[C@H](C)N(C)C(=O)[C@H](Cc2ccc(O)cc2)NC(=O)CSCC(C(=O)NCC(N)=O)NC(=O)[C@H](CCCNC(=N)N)NC(=O)[C@H](CCCC)N(C)C(=O)[C@H](CCCC)N(C)C(=O)[C@H](Cc2csc3ccccc23)NC(=O)[C@H](CO)NC(=O)[C@H](Cc2c[nH]c3ccccc23)NC(=O)[C@H]2CCCN2C1=O (stereo partly shown) [Example 9002] ({CH2CO}-Y[NMeA]NPH[Nle][dP]WS[Bta][NMeNle][NMeNle]R[ξC]G-NH2; thioether N-14) | 6.76 to 30.3 | 4.78 to 72.9 |
| CCCC[C@H]1C(=O)N(C)[C@@H](CCOC)C(=O)N[C@@H](CCCNC(=N)N)C(=O)NC(C(=O)NCC(N)=O)CSCC(=O)N[C@@H](Cc2ccc(O)cc2)C(=O)N(C)[C@@H](C)C(=O)N[C@@H](CC(N)=O)C(=O)N2CCC[C@H]2C(=O)N[C@@H](Cc2cnc[nH]2)C(=O)N[C@@H](CC(C)C)C(=O)N2C[C@H](O)C[C@@H]2C(=O)N[C@@H](Cc2c[nH]c3ccccc23)C(=O)N[C@@H](CO)C(=O)N[C@@H](Cc2c[nH]c3ccccc23)C(=O)N1C (stereo partly shown) [Example 9003] | 0.385 to 6.74 | 0.158 to 4.71 |
| CCCC[C@H]1C(=O)N[C@@H](CCCNC(=N)N)C(=O)NC(C(=O)NCC(N)=O)CSCC(=O)N[C@@H](Cc2ccc(O)cc2)C(=O)N(C)[C@@H](C)C(=O)N[C@@H](CC(N)=O)C(=O)N2CCC[C@H]2C(=O)N[C@@H](Cc2cnc[nH]2)C(=O)N[C@@H](CC(C)C)C(=O)N2C[C@H](O)C[C@H]2C(=O)N[C@@H](Cc2c[nH]c3ccccc23)C(=O)N[C@@H](CO)C(=O)N[C@@H](Cc2c[nH]c3ccccc23)C(=O)N(C)[C@@H](CCOC)C(=O)N1C (stereo partly shown) [Example 9004] | 0.385 to 6.74 | 4.78 to 72.9 |
| CCCC[C@H]1C(=O)N(C)[C@@H](CCOC)C(=O)N[C@@H](CCCNC(=N)N)C(=O)N[C@H](C(=O)NCC(N)=O)CSCC(=O)N[C@@H](Cc2ccc(O)cc2)C(=O)N(C)[C@@H](C)C(=O)N[C@@H](CC(=O)O)C(=O)N2CCC[C@H]2C(=O)N[C@@H](Cc2cnc[nH]2)C(=O)N[C@@H](CC(C)C)C(=O)N2CCC[C@@H]2C(=O)N[C@@H](Cc2c[nH]c3ccccc23)C(=O)N[C@@H](CO)C(=O)N[C@@H](Cc2c[nH]c3ccccc23)C(=O)N1C [Example 9005] ({CH2CO}-Y[NMeA]DPHL[dP]WSW[NMeNle][NMehSer](Me)RCG-NH2; thioether N-14) | 0.385 to 6.74 | 0.158 to 4.71 |
| CCCC[C@H]1C(=O)N(C)[C@@H](CCOC)C(=O)N[C@@H](CCCNC(=N)N)C(=O)N[C@H](C(=O)NCC(N)=O)CSCC(=O)N[C@@H](Cc2ccc(O)cc2)C(=O)N(C)[C@@H](C)C(=O)N[C@@H](CC(N)=O)C(=O)N2CCC[C@H]2C(=O)N[C@@H](Cc2cnc[nH]2)C(=O)N[C@@H](CC(C)C)C(=O)N2C[C@H](O)C[C@@H]2C(=O)N[C@@H](Cc2c[nH]c3ccccc23)C(=O)N[C@@H](CO)C(=O)N[C@@H](Cc2csc3ccccc23)C(=O)N1C [Example 9006] ({CH2CO}-Y[NMeA]NPHL[d(cisHyp)]WS[Bta][NMeNle][NMehSer](Me)RCG-NH2; thioether N-14) | 0.385 to 6.74 | 0.158 to 4.71 |
